Consider twelve molecules from US12441704B2, “Compounds active towards nuclear receptors” (NUEVOLUTION A/S, priority 2019, dated 2025).

For orientation: EC50 means the concentration that produces a half-maximal response.

The assay addresses T1, RORγ ligand-binding domain fused to Gal4 (Homo sapiens, UniProt P51449).
T1 construct: Gal4 (galactose-responsive transcription factor); expressed in transfected cells; host or cells: HEK293
T1 sequence (P51449 269-508 limits assumed): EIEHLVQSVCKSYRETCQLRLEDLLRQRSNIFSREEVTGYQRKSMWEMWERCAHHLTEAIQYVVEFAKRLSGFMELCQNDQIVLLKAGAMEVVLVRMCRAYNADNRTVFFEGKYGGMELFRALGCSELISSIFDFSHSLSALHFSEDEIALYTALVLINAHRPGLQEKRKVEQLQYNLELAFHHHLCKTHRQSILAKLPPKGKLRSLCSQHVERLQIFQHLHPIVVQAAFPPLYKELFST
Description: RORγ Reporter Assay (Gal4). Format: cell-based. The conditions noted are these: HEK293 cells co-transfected with RORγ LBD-Gal4 and luciferase reporter; 24 h incubation; absolute EC50; read-out: EC50. The procedure:
The HEK293 cell line is co-transfected transiently with two plasmids, one with the RORγ ligand-binding domain fused to galactose-responsive transcription factor (Gal4), and the other with the luciferase reporter gene and Gal binding sites (UAS). This construction allows to determine the RORγ activity in a cellular system through the measurement of luminescence.
A suspension of RORγ reporter cells was dispensed into plates and cultured 2 h at 37° C. and 5% CO2. Media formulation consisted in DMEM/F-12 medium (Gibco) supplemented with 10% heat inactivated FBS (Sigma-Aldrich), non-essential aminoacids (Sigma-Aldrich), 2 mM Glutamax (Gibco) and 100 U/mL penicillin (Sigma-Aldrich). Dose-response curves with compounds were prepared in 100% DMSO and further diluted 100-fold in culture medium. Compound solutions were added to the plate containing cells (final DMSO concentration of 0.1%) and incubated for 24 h at 37° C. and 5% CO2. Luciferase detection reagent was added to each well, and relative light units (RLUs) were quantified from each assay well using a plate reading luminometer.
Values of average RLU±S.D. were computed for all treatment sets, followed by the calculations of percent-reduction of RORγ activity in response to respective test compound. The following formula was used: activity=100*[1−[x test compound/average vehicle] where the theoretical minimum reduction (0% reduction).
Background: Reporter assays use an easily measured gene product as a stand-in for the process of interest.
With `NC(=O)CN1CCC(N)(CNc2ncnc(N(Cc3ccc(C(F)(F)F)cc3)C3CC3)c2F)CC1` [Example E6-1, 2-(4-Amino-4-(((6-(cyclopropyl(4-(trifluoromethyl)benzyl)amino)-5-fluoropyrimidin-4-yl)amino)methyl)piperidin-1-yl)acetamide], the EC50 was determined as 150 nM.

For the molecule `CCN(Cc1ccc(C(F)(F)F)cc1)c1ncnc(NC[C@H]2CCN(CC(N)=O)C[C@@H]2O)c1F` (single isomer, unassigned) [Example A7-21-2], the EC50 was found to be 13 nM.

`COC(=O)C1(CNc2ncnc(N(Cc3ccc(C(F)(F)F)cc3)C3CC3)c2F)CCN(CC(N)=O)CC1` [Example A7-08, methyl 1-(2-amino-2-oxoethyl)-4-(((6-(cyclopropyl(4-(trifluoromethyl)benzyl)amino)-5-fluoropyrimidin-4-yl)amino)methyl)piperidine-4-carboxylate]: the EC50 came out at 15 nM.

For `NC(=O)CN1CCC(F)(CNc2ncnc(N(Cc3ccc4c(c3)OCC(=O)N4)C3CC3)c2F)CC1` [Example A7-12], the EC50 came to 150 nM.

With `CCN(Cc1ccc(-c2cnn(CCO)c2)cc1)c1ncnc(NC[C@@H]2CCN(CC(N)=O)C[C@H]2O)c1F` (racemic) [Example A7-73, rac-2-((3R,4R)-4-(((6-(ethyl(4-(1-(2-hydroxyethyl)-1H-pyrazol-4-yl)benzyl)amino)-5-fluoropyrimidin-4-yl)amino)methyl)-3-hydroxypiperidin-1-yl)acetamide], the EC50 came out at 99 nM.

With `Cc1ccc(C)c(CN(c2ncnc(NCC3CCN(CC(N)=O)CC3)c2F)C2CC2)c1` [Example A7-47, 2-(4-(((6-(cyclopropyl(2,5-dimethylbenzyl)amino)-5-fluoropyrimidin-4-yl)amino)methyl)piperidin-1-yl)acetamide], the EC50 was greater than 1000 nM.

Turning to `CC(C)N(Cc1ccc(C(F)(F)F)cc1)c1ncnc(NC[C@H]2CCN(CC(N)=O)C[C@@H]2O)c1F` (relative stereo) [Example A7-19-1, rel-2-((3R,4R)-4-(((5-fluoro-6-(isopropyl(4-(trifluoromethyl)benzyl)amino)pyrimidin-4-yl)amino)methyl)-3-hydroxypiperidin-1-yl)acetamide], the EC50 was found to be 40 nM.

For `NC(=O)CN1CCC(C(CO)Nc2ncnc(N(Cc3ccc(C(F)(F)F)cc3)C3CC3)c2F)CC1` (stereo not drawn) [Example A7-87, 2-(4-(1-((6-(cyclopropyl(4-(trifluoromethyl)benzyl)amino)-5-fluoropyrimidin-4-yl)amino)-2-hydroxyethyl)piperidin-1-yl)acetamide], the EC50 came to 181 nM.

As to `NC(=O)CN1CCC(CNc2ncnc(N(Cc3ccc(C(F)(F)F)cc3)C3CC3)c2F)C(C(F)(F)F)C1` (single isomer, unassigned) [Example A7-07-2, 2-(4-(((6-(cyclopropyl(4-(trifluoromethyl)benzyl)amino)-5-fluoropyrimidin-4-yl)amino)methyl)-3-(trifluoromethyl)piperidin-1-yl)acetamide], the concentration for a half-maximal effect (EC50) turned out to be 93 nM.

With `CC(F)(F)c1ccc(CN(c2ncnc(NC[C@H]3CCN(CC(N)=O)C[C@@H]3O)c2F)C2CC2)cn1` (relative stereo) [Example A7-29-2, rel-2-((3R,4R)-4-(((6-(cyclopropyl((6-(1,1-difluoroethyl)pyridin-3-yl)methyl)amino)-5-fluoropyrimidin-4-yl)amino)methyl)-3-hydroxypiperidin-1-yl)acetamide], the concentration giving a half-maximal response (EC50) came to 70 nM.

With `NC(=O)CN1CC[C@@H](CNc2ncnc(N(Cc3ccc(C(F)(F)F)cn3)C3CCC3)c2F)[C@H](O)C1` (racemic) [Example A7-24, rac-2-((3R,4R)-4-(((6-(cyclobutyl((5-(trifluoromethyl)pyridin-2-yl)methyl)amino)-5-fluoropyrimidin-4-yl)amino)methyl)-3-hydroxypiperidin-1-yl)acetamide], the EC50 worked out at 120 nM.

`NC(=O)CN1CC[C@H](CNc2ncnc(N(Cc3cnc(C(F)(F)F)nc3)C3CCC3)c2F)[C@@H](O)C1` (single isomer, unassigned) [Example A7-18-2]: the EC50 was 82 nM.
